Laboratory results: ChEMBL document CHEMBL1141074, “Pharmacophore-guided drug discovery investigations leading to bioactive 5-aminotetrahydropyrazolopyridines. Implications for the binding mode of heterocyclic dopamine D3 receptor agonists” (J Med Chem, 2005)

Tests used:
D(1A) dopamine receptor [1] = target: T1, D(1A) dopamine receptor (Sus scrofa, UniProt P50130); test: Binding affinity (low) towards porcine dopamine receptor 1 by using [3H]-SCH- 23390 (0.3 nM) as radioligand
D(4) dopamine receptor [2] = target: T2, D(4) dopamine receptor (Homo sapiens, UniProt P21917); test: biochemical; format: cell-based, ovary
T2 sequence (P21917 whole entry): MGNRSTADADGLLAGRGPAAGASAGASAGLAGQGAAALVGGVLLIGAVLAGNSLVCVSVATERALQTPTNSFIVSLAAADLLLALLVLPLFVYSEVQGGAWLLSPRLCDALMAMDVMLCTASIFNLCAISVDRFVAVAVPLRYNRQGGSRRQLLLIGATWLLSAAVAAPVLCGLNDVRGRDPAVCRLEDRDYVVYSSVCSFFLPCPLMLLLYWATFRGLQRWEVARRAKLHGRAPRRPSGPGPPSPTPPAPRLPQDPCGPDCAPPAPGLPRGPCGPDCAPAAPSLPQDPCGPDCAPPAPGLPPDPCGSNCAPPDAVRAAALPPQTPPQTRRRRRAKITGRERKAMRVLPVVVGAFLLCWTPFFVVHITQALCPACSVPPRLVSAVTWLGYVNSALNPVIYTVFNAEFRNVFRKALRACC

D(4) dopamine receptor [3] = target: T2, D(4) dopamine receptor; test: biochemical; format: cell-based, ovary; remark: listed apart in the source
D(2) dopamine receptor [4] = target: T3, D(2) dopamine receptor (Homo sapiens, UniProt P14416); test: Low binding affinity towards human dopamine receptor 2 (long) expressed in Chinese hamster ovary cells using [3H]spiperone (0.5 nM) as radioligand; format: cell-based
D(2) dopamine receptor [5] = target: T3, D(2) dopamine receptor; test: High binding affinity towards human dopamine receptor 2 (long) expressed in Chinese hamster ovary cells using [3H]spiperone (0.5 nM) as radioligand; format: cell-based
D(2) dopamine receptor [6] = target: T3, D(2) dopamine receptor; test: Low binding affinity towards human dopamine receptor 2 (short) expressed in Chinese hamster ovary cells using [3H]spiperone (0.5 nM) as radioligand; format: cell-based
D(2) dopamine receptor [7] = target: T3, D(2) dopamine receptor; test: biochemical; format: cell-based, ovary
D(3) dopamine receptor [8] = target: T4, D(3) dopamine receptor (Homo sapiens, UniProt P35462); test: Effective concentration against dopamine D3 receptor
D(3) dopamine receptor [9] = target: T4, D(3) dopamine receptor; test: biochemical
D(3) dopamine receptor [10] = target: T4, D(3) dopamine receptor; test: biochemical; remark: listed apart in the source
D(3) dopamine receptor [11] = target: T4, D(3) dopamine receptor; test: Binding affinity towards dopamine D3 receptor
D(2) dopamine receptor [12] = target: T3, D(2) dopamine receptor; test: Binding affinity towards human dopamine receptor 2 (long) expressed in Chinese hamster ovary cells using [3H]spiperone (0.5 nM) as radioligand; format: cell-based
D(2) dopamine receptor [13] = target: T3, D(2) dopamine receptor; test: Binding affinity towards human dopamine receptor 2 (short) expressed in Chinese hamster ovary cells using [3H]spiperone (0.5 nM) as radioligand; format: cell-based
D(1A) dopamine receptor [14] = target: T1, D(1A) dopamine receptor; test: Binding affinity towards porcine dopamine receptor 1 against radioligand [3H]-SCH- 23390
D(3) dopamine receptor [15] = target: T4, D(3) dopamine receptor; test: Binding affinity towards human dopamine receptor 3 expressed in Chinese hamster ovary cells using [3H]spiperone (0.5 nM) as radioligand; format: cell-based
D(4) dopamine receptor [16] = target: T2, D(4) dopamine receptor; test: Binding affinity towards human dopamine receptor 4.4 expressed in Chinese hamster ovary cells using [3H]spiperone (0.5 nM) as radioligand; format: cell-based
D(1A) dopamine receptor [17] = target: T1, D(1A) dopamine receptor; test: Binding affinity (low) towards porcine dopamine receptor 1 against radioligand [3H]-SCH- 23390

T1 sequence (P50130 whole entry): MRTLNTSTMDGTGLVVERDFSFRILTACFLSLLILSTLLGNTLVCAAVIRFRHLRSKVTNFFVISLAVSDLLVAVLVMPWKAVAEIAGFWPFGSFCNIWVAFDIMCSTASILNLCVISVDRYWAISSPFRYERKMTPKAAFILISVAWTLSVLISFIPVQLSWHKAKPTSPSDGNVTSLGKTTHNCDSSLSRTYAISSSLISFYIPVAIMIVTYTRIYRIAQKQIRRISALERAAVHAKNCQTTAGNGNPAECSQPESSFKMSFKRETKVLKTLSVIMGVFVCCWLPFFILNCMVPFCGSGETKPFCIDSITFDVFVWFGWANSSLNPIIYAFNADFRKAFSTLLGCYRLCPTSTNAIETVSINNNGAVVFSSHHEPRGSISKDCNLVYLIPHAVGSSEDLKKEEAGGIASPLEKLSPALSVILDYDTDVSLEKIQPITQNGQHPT
T3 sequence (P14416 whole entry): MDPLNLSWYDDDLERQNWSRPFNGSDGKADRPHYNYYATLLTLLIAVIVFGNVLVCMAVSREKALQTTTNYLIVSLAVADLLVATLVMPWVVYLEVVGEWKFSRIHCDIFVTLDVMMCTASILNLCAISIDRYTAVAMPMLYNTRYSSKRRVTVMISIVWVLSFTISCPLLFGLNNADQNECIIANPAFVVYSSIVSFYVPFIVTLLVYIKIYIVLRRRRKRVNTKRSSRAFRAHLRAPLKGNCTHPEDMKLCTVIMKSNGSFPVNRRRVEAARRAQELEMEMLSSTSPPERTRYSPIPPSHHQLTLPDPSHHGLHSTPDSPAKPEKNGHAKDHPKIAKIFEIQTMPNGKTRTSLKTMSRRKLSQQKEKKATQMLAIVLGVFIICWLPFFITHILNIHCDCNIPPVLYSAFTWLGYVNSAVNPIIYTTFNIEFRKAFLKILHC
T4 sequence (P35462 whole entry): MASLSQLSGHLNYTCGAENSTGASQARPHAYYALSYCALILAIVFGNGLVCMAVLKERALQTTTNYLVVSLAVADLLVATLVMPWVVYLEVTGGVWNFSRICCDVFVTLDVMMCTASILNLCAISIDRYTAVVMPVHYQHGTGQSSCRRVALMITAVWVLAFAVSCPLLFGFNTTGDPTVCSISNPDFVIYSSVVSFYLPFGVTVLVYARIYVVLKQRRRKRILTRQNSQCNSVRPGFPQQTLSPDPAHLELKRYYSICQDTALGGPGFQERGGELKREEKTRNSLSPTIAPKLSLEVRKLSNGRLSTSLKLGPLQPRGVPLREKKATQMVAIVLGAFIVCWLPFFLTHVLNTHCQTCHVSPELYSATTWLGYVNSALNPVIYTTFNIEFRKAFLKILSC

Row | SMILES | Ki (D(1A) dopamine receptor [1]) | Ki (D(4) dopamine receptor [2]) | Ki (D(4) dopamine receptor [3]) | Ki (D(2) dopamine receptor [4]) | Ki (D(2) dopamine receptor [5]) | Ki (D(2) dopamine receptor [6]) | Ki (D(2) dopamine receptor [7]) | EC50 (D(3) dopamine receptor [8]) | Ki (D(3) dopamine receptor [9]) | Ki (D(3) dopamine receptor [10]) | pKi (D(3) dopamine receptor [11]) | Ki (D(2) dopamine receptor [12]) | Ki (D(2) dopamine receptor [13]) | Ki (D(1A) dopamine receptor [14]) | Ki (D(3) dopamine receptor [15]) | Ki (D(4) dopamine receptor [16]) | Ki (D(1A) dopamine receptor [17])
1 | CCCN(CCC)[C@H]1CCn2nccc2C1 | > 20 µM | 1.7 µM | 0.058 µM | 15 µM | 0.18 µM | 10 µM | 0.25 µM | 0.0034 µM | 0.11 µM | 0.004 µM | 8.4 | – | – | – | – | – | –
2 | CCCN(CCC)C1CCn2ncc(Cl)c2C1 (stereo not given) | > 20 µM | 6.4 µM | 0.2 µM | > 20 µM | 0.12 µM | 12 µM | 0.21 µM | 0.0045 µM | 0.23 µM | 0.0061 µM | – | – | – | – | – | – | –
3 | CCCN(CCC)[C@@H]1CCn2nccc2C1 | – | – | – | – | – | – | – | – | – | – | – | > 20 µM | > 20 µM | > 20 µM | 2.7 µM | 13 µM | –
4 | CCCN(CCC)C1CCn2ncc(CO)c2C1 (stereo not given) | – | – | – | – | – | – | – | – | – | – | – | > 20 µM | > 20 µM | > 20 µM | 4 µM | 16 µM | –
5 | CCCN(CCC)C1CCn2ncc(C=O)c2C1 (stereo not given) | – | – | – | – | – | – | – | – | – | – | – | 5.9 µM | 4 µM | > 20 µM | 12 µM | 14 µM | –
6 | CCCN(CCC)C1CCn2ncc(C(=O)OC)c2C1 (stereo not given) | – | – | – | – | – | – | – | – | – | – | – | > 20 µM | > 20 µM | > 20 µM | 17 µM | > 20 µM | –
7 | CCCNC1CCn2ncc(C(=O)OC)c2C1 (stereo not given) | – | – | – | – | – | – | – | – | – | – | – | > 100 µM | > 100 µM | > 20 µM | 12 µM | 90 µM | –
8 | CCCN(CCC)C1CCn2nccc2C1 (racemic) | – | 1.6 µM | 0.058 µM | 18 µM | 0.22 µM | 8.5 µM | 0.16 µM | – | 0.2 µM | 0.0067 µM | – | – | – | – | – | – | > 20 µM
